Experimental data reported in patent US20110028504A1, “Formulation of radioprotective alpha beta unsaturated aryl sulfones” (ONCONOVA THERAPEUTICS, INC., priority 2005, published 2011).
Entries after “also recorded” stand apart in the source; their conditions may differ. Marks after values point to notes of the source that are not given here.

Assay: pH stability testing at 75° C. (HPLC)
Assay type: physicochemical
Experimental: (§1) The drug is dissolved in different pH buffers as outlined in Table 20. One hundred mL of each solution is prepared in a volumetric flask. Each solution is filtered through a 0.22 um filter. Approximately, four mL of the above solution is placed in 5 ml ampoules and sealed by a propane torch. The pH of the solution is determined at time zero and at each time interval. All the ampoules are placed in a 75° C. constant temperature oven. Any color changes or precipitation in the solution during the sample collection is visually observed. Concentration of the drug is determined at time zero and other time intervals by HPLC.
as §1, with “prepared in volumetric flask.” for “prepared in a volumetric flask.”, “filtered through 0.22 um” for “filtered through a 0.22 um”, “by HPLC. The pH and drug content of each sample are determined.” for “by HPLC.”
The data from the pH stability study is analyzed by plotting Log (conc.) versus time.
The rate constant for the degradation is determined using a linear regression at each individual pH.

O=C([O-])c1ccc(/C=C/S(=O)(=O)Cc2ccc(Cl)cc2)cc1.[Na+] [ON.1210.Na, (E)-4-Carboxystyryl-4-chlorobenzylsulfone, Sodium Salt]
pH-stability profile (aqueous buffers pH 4 to 9, 75° C., Sodium Salt): better stability at neutral and biological pH but degradation is rapid under acidic condition; also recorded: dramatically improved as the pH is increased towards the neutral pH | order of the degradation reaction (aqueous buffers, 75° C., Sodium Salt): pseudo-first-order rate; also recorded: pseudo first order reaction | stability in an aqueous environment (biological pH): quite stable in an aqueous environment at biological pH | Kobs, first order rate constant for the degradation (pH 4.0, 75° C.): 0.0621 day⁻¹ | Concentration of the ON.1210.Na determined by HPLC during the stability study (pH 4 buffer, 75° C., 0 hours, pH of the solution 4.03): 2.7047 µg/mL | Concentration of the ON.1210.Na determined by HPLC during the stability study (pH 4 buffer, 75° C., 1 day, pH of the solution 4.3): 2.659 µg/mL | Concentration of the ON.1210.Na determined by HPLC during the stability study (pH 4 buffer, 75° C., 3 days, pH of the solution 4.12): 2.6331 µg/mL | Concentration of the ON.1210.Na determined by HPLC during the stability study (pH 4 buffer, 75° C., 5 days, pH of the solution 4.5): 2.7344 µg/mL | Concentration of the ON.1210.Na determined by HPLC during the stability study (pH 4 buffer, 75° C., 42 days, pH of the solution 3.84): 0.1171 µg/mL | Concentration of the ON.1210.Na determined by HPLC during the stability study (pH 4 buffer, 75° C., 54 days, pH of the solution 3.74): 0.1614 µg/mL | Kobs, first order rate constant for the degradation (pH 5.0, 75° C.): 0.0295 day⁻¹ | Concentration of the ON.1210.Na determined by HPLC during the stability study (pH 5 buffer, 75° C., 0 hours, pH of the solution 5.03): 4.4577 µg/mL | Concentration of the ON.1210.Na determined by HPLC during the stability study (pH 5 buffer, 75° C., 1 day, pH of the solution 5.18): 4.394 µg/mL | Concentration of the ON.1210.Na determined by HPLC during the stability study (pH 5 buffer, 75° C., 3 days, pH of the solution 5.11): 4.4295 µg/mL | Concentration of the ON.1210.Na determined by HPLC during the stability study (pH 5 buffer, 75° C., 5 days, pH of the solution 5.14): 4.4714 µg/mL | Concentration of the ON.1210.Na determined by HPLC during the stability study (pH 5 buffer, 75° C., 10 days, pH of the solution 5.2): 1.017 µg/mL | Concentration of the ON.1210.Na determined by HPLC during the stability study (pH 5 buffer, 75° C., 17 days, pH of the solution 5.21): 0.8382 µg/mL | Concentration of the ON.1210.Na determined by HPLC during the stability study (pH 5 buffer, 75° C., 28 days, pH of the solution 4.71): 1.3340 µg/mL | Concentration of the ON.1210.Na determined by HPLC during the stability study (pH 5 buffer, 75° C., 35 days, pH of the solution 4.93): 2.8137 µg/mL | Concentration of the ON.1210.Na determined by HPLC during the stability study (pH 5 buffer, 75° C., 42 days): 1.3049 µg/mL | Concentration of the ON.1210.Na determined by HPLC during the stability study (pH 5 buffer, 75° C., 54 days, pH of the solution 4.76): 0.9539 µg/mL | Kobs, first order rate constant for the degradation (pH 6.0, 75° C.): 0.0069 day⁻¹ | Concentration of the ON.1210.Na determined by HPLC during the stability study (pH 6 buffer, 75° C., 0 hours, pH of the solution 6.02): 22.39 µg/mL | Concentration of the ON.1210.Na determined by HPLC during the stability study (pH 6 buffer, 75° C., 1 day, pH of the solution 6.12): 22.3 µg/mL | Concentration of the ON.1210.Na determined by HPLC during the stability study (pH 6 buffer, 75° C., 3 days, pH of the solution 6.21): 22.36 µg/mL | Concentration of the ON.1210.Na determined by HPLC during the stability study (pH 6 buffer, 75° C., 5 days, pH of the solution 6.14): 22.4945 µg/mL | Concentration of the ON.1210.Na determined by HPLC during the stability study (pH 6 buffer, 75° C., 10 days, pH of the solution 6.17): 19.0863 µg/mL | Concentration of the ON.1210.Na determined by HPLC during the stability study (pH 6 buffer, 75° C., 17 days, pH of the solution 6.21): 18.15 µg/mL | Concentration of the ON.1210.Na determined by HPLC during the stability study (pH 6 buffer, 75° C., 28 days, pH of the solution 5.81): 17.5401 µg/mL | Concentration of the ON.1210.Na determined by HPLC during the stability study (pH 6 buffer, 75° C., 35 days, pH of the solution 5.92): 17.3979 µg/mL | Concentration of the ON.1210.Na determined by HPLC during the stability study (pH 6 buffer, 75° C., 42 days, pH of the solution 5.94): 16 µg/mL | Concentration of the ON.1210.Na determined by HPLC during the stability study (pH 6 buffer, 75° C., 54 days, pH of the solution 5.90): 14.7174 µg/mL | Kobs, first order rate constant for the degradation (pH 7.4, 75° C.): 0.0037 day⁻¹ | Concentration of the ON.1210.Na determined by HPLC during the stability study (pH 7.4 buffer, 75° C., 0 hours, pH of the solution 7.41): 485.952 µg/mL | Concentration of the ON.1210.Na determined by HPLC during the stability study (pH 7.4 buffer, 75° C., 1 day, pH of the solution 7.42): 485.8206 µg/mL | Concentration of the ON.1210.Na determined by HPLC during the stability study (pH 7.4 buffer, 75° C., 3 days, pH of the solution 7.52): 481.4637 µg/mL | Concentration of the ON.1210.Na determined by HPLC during the stability study (pH 7.4 buffer, 75° C., 5 days, pH of the solution 7.44): 484.009 µg/mL | Concentration of the ON.1210.Na determined by HPLC during the stability study (pH 7.4 buffer, 75° C., 10 days, pH of the solution 7.42): 473.2525 µg/mL | Concentration of the ON.1210.Na determined by HPLC during the stability study (pH 7.4 buffer, 75° C., 17 days, pH of the solution 7.41): 466.5611 µg/mL | Concentration of the ON.1210.Na determined by HPLC during the stability study (pH 7.4 buffer, 75° C., 28 days, pH of the solution 7.2): 434.5598 µg/mL | Concentration of the ON.1210.Na determined by HPLC during the stability study (pH 7.4 buffer, 75° C., 35 days, pH of the solution 7.34): 428.5503 µg/mL | Concentration of the ON.1210.Na determined by HPLC during the stability study (pH 7.4 buffer, 75° C., 42 days, pH of the solution 7.36): 416.3353 µg/mL | Concentration of the ON.1210.Na determined by HPLC during the stability study (pH 7.4 buffer, 75° C., 54 days, pH of the solution 7.31): 403.267 µg/mL | Kobs, first order rate constant for the degradation (pH 8.0, 75° C.): 0.0064 day⁻¹ | Concentration of the ON.1210.Na determined by HPLC during the stability study (pH 8.0 buffer, 75° C., 0 hours, pH of the solution 8.01): 494.8540 µg/mL | Concentration of the ON.1210.Na determined by HPLC during the stability study (pH 8.0 buffer, 75° C., 1 day, pH of the solution 8.08): 493.8002 µg/mL | Concentration of the ON.1210.Na determined by HPLC during the stability study (pH 8.0 buffer, 75° C., 3 days, pH of the solution 8.04): 485.8134 µg/mL | Concentration of the ON.1210.Na determined by HPLC during the stability study (pH 8.0 buffer, 75° C., 5 days, pH of the solution 7.98): 486.042 µg/mL | Concentration of the ON.1210.Na determined by HPLC during the stability study (pH 8.0 buffer, 75° C., 10 days, pH of the solution 7.98): 462.5487 µg/mL | Concentration of the ON.1210.Na determined by HPLC during the stability study (pH 8.0 buffer, 75° C., 17 days, pH of the solution 8.02): 441.454 µg/mL | Concentration of the ON.1210.Na determined by HPLC during the stability study (pH 8.0 buffer, 75° C., 28 days, pH of the solution 7.81): 398.9563 µg/mL | Concentration of the ON.1210.Na determined by HPLC during the stability study (pH 8.0 buffer, 75° C., 35 days, pH of the solution 7.33, new degradation product with retention time 4.52 min): 249.7589** μg/mL | Concentration of the ON.1210.Na determined by HPLC during the stability study (pH 8.0 buffer, 75° C., 42 days, pH of the solution 7.36): 378.4188 µg/mL | Concentration of the ON.1210.Na determined by HPLC during the stability study (pH 8.0 buffer, 75° C., 54 days, pH of the solution 7.9): 353.5676 µg/mL | Kobs, first order rate constant for the degradation (pH 9.0, 75° C.): 0.0104 day⁻¹ | Concentration of the ON.1210.Na determined by HPLC during the stability study (pH 9.0 buffer, 75° C., 0 hours, pH of the solution 9.02): 475.7458 µg/mL | Concentration of the ON.1210.Na determined by HPLC during the stability study (pH 9.0 buffer, 75° C., 1 day, pH of the solution 9.1): 463.3368 µg/mL | Concentration of the ON.1210.Na determined by HPLC during the stability study (pH 9.0 buffer, 75° C., 3 days, pH of the solution 9.12): 436.1314 µg/mL | Concentration of the ON.1210.Na determined by HPLC during the stability study (pH 9.0 buffer, 75° C., 5 days, pH of the solution 8.72): 422.51 µg/mL | Concentration of the ON.1210.Na determined by HPLC during the stability study (pH 9.0 buffer, 75° C., 10 days, pH of the solution 8.74): 379.1650 µg/mL | Concentration of the ON.1210.Na determined by HPLC during the stability study (pH 9.0 buffer, 75° C., 17 days, pH of the solution 8.75): 351.6448 µg/mL | Concentration of the ON.1210.Na determined by HPLC during the stability study (pH 9.0 buffer, 75° C., 28 days, pH of the solution 8.53): 304.3917 µg/mL | Concentration of the ON.1210.Na determined by HPLC during the stability study (pH 9.0 buffer, 75° C., 35 days, pH of the solution 8.46, two new degradation products with retention time of 4.52 and 3.6 minutes): 199.584*** μg/mL | Concentration of the ON.1210.Na determined by HPLC during the stability study (pH 9.0 buffer, 75° C., 42 days, pH of the solution 8.45): 300.1106 µg/mL | Concentration of the ON.1210.Na determined by HPLC during the stability study (pH 9.0 buffer, 75° C., 54 days, pH of the solution 8.47): 267.741 µg/mL
